Active and inactive are the calls of the source.
Target: Macrophage-stimulating protein receptor (Homo sapiens, UniProt Q04912)
Further: in the data inactive means no Kd found up to 30 µM.

Macrophage-stimulating protein receptor, sequence (Q04912 25-304 limits assumed): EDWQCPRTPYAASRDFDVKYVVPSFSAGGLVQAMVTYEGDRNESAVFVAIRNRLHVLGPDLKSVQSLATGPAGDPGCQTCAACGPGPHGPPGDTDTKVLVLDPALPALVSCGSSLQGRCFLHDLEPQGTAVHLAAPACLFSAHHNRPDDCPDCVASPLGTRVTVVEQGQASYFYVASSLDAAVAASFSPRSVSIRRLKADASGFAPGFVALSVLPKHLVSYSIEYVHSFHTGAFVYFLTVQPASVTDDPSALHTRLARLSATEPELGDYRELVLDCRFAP
Macrophage-stimulating protein receptor, sequence (Q04912 310-1400 limits assumed): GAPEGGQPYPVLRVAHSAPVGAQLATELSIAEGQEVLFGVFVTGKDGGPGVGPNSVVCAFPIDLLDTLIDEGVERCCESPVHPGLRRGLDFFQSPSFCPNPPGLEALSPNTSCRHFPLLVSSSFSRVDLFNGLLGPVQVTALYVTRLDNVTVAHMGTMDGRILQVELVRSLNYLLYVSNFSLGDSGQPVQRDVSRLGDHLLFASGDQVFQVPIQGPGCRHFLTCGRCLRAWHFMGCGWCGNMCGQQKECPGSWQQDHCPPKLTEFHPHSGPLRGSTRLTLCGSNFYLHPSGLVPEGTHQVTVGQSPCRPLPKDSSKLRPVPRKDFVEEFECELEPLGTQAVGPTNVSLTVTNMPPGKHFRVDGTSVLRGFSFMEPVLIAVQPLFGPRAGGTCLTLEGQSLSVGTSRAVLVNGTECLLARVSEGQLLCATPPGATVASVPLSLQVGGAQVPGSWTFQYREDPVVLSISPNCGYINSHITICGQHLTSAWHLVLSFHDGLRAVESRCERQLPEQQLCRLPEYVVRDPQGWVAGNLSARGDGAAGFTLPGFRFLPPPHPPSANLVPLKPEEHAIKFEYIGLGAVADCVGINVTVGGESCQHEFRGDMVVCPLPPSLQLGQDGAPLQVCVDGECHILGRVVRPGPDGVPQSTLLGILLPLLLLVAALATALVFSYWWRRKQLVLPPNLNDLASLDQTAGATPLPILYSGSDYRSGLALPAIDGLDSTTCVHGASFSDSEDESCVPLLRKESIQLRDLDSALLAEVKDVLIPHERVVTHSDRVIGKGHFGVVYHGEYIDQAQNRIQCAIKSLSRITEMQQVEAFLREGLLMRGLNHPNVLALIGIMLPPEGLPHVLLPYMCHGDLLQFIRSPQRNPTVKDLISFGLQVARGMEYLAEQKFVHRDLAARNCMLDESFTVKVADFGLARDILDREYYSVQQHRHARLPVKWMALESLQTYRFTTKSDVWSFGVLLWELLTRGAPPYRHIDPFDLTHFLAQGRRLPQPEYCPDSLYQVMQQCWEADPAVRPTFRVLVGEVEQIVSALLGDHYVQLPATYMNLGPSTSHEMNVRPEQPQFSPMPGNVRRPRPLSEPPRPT

SMILES | Kd
COc1ccc(-c2ccc3c(N4CCOC[C@@H]4C)nc(N4CCOC[C@@H]4C)nc3n2)cc1CO [AZD-8055] | > 30 µM (inactive)
C[C@@H](Nc1cc(F)cc(F)c1)c1cc(C(=O)N(C)C)cc2c(=O)cc(N3CCOCC3)oc12 [AZD-8186] | > 30 µM (inactive)
Cc1ccc(NC(=O)c2ccc(CN3CC[C@H](N(C)C)C3)c(C(F)(F)F)c2)cc1Nc1nccc(-c2cncnc2)n1 [BAFETINIB] | > 30 µM (inactive)
Cc1cc2c(F)c(Oc3ncnn4cc(OC[C@@H](C)OC(=O)[C@H](C)N)c(C)c34)ccc2[nH]1 [BRIVANIB ALANINATE] | > 30 µM (inactive)
O=C(c1ccc(F)c(F)c1Nc1ccc(I)cc1F)N1CC(O)([C@@H]2CCCCN2)C1 [COBIMETINIB] | > 30 µM (inactive)
COC(=O)N[C@@H](C)CNc1nccc(-c2cn(C(C)C)nc2-c2cc(Cl)cc(NS(C)(=O)=O)c2F)n1 [ENCORAFENIB] | > 30 µM (inactive)

Target: T1, Dual specificity mitogen-activated protein kinase kinase 6 (Homo sapiens, UniProt P52564)
T1 sequence (P52564 whole entry): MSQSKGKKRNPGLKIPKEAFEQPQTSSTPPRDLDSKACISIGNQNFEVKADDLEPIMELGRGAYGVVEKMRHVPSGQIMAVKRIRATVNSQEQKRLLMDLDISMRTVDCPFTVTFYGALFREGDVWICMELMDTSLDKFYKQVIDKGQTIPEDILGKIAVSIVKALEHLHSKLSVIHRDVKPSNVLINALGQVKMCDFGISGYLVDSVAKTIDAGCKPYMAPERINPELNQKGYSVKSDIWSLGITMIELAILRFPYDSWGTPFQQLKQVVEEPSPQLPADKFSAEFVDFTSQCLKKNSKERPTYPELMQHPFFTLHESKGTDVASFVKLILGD

SMILES | Kd
COc1ccc(-c2ccc3c(N4CCOC[C@@H]4C)nc(N4CCOC[C@@H]4C)nc3n2)cc1CO [AZD-8055] | > 30 µM (inactive)
C[C@@H](Nc1cc(F)cc(F)c1)c1cc(C(=O)N(C)C)cc2c(=O)cc(N3CCOCC3)oc12 [AZD-8186] | > 30 µM (inactive)
Cc1ccc(NC(=O)c2ccc(CN3CC[C@H](N(C)C)C3)c(C(F)(F)F)c2)cc1Nc1nccc(-c2cncnc2)n1 [BAFETINIB] | > 30 µM (inactive)
Cc1cc2c(F)c(Oc3ncnn4cc(OC[C@@H](C)OC(=O)[C@H](C)N)c(C)c34)ccc2[nH]1 [BRIVANIB ALANINATE] | > 30 µM (inactive)
O=C(c1ccc(F)c(F)c1Nc1ccc(I)cc1F)N1CC(O)([C@@H]2CCCCN2)C1 [COBIMETINIB] | > 30 µM (inactive)
COC(=O)N[C@@H](C)CNc1nccc(-c2cn(C(C)C)nc2-c2cc(Cl)cc(NS(C)(=O)=O)c2F)n1 [ENCORAFENIB] | > 30 µM (inactive)

Target: T2, Peroxisomal acyl-coenzyme A oxidase 1 (Homo sapiens, UniProt Q15067)
T2 sequence (Q15067 whole entry): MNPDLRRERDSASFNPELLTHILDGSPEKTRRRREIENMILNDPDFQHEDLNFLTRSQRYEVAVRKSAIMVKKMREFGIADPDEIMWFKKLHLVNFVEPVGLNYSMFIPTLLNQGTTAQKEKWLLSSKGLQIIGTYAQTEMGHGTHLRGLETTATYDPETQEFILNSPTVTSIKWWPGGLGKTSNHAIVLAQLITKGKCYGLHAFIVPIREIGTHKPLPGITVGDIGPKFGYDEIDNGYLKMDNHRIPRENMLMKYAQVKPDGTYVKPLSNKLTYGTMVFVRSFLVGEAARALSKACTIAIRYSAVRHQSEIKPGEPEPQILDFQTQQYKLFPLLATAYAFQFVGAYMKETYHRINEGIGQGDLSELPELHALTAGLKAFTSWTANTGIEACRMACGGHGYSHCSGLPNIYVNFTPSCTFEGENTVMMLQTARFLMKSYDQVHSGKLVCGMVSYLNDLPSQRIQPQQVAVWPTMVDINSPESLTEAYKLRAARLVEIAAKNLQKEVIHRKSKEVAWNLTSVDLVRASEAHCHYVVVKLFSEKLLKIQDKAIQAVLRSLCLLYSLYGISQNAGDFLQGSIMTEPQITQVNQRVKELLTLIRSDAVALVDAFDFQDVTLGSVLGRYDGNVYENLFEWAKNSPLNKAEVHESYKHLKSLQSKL

SMILES | Kd
COc1ccc(-c2ccc3c(N4CCOC[C@@H]4C)nc(N4CCOC[C@@H]4C)nc3n2)cc1CO [AZD-8055] | > 30 µM (inactive)
C[C@@H](Nc1cc(F)cc(F)c1)c1cc(C(=O)N(C)C)cc2c(=O)cc(N3CCOCC3)oc12 [AZD-8186] | > 30 µM (inactive)
Cc1ccc(NC(=O)c2ccc(CN3CC[C@H](N(C)C)C3)c(C(F)(F)F)c2)cc1Nc1nccc(-c2cncnc2)n1 [BAFETINIB] | > 30 µM (inactive)
Cc1cc2c(F)c(Oc3ncnn4cc(OC[C@@H](C)OC(=O)[C@H](C)N)c(C)c34)ccc2[nH]1 [BRIVANIB ALANINATE] | > 30 µM (inactive)
O=C(c1ccc(F)c(F)c1Nc1ccc(I)cc1F)N1CC(O)([C@@H]2CCCCN2)C1 [COBIMETINIB] | > 30 µM (inactive)
COC(=O)N[C@@H](C)CNc1nccc(-c2cn(C(C)C)nc2-c2cc(Cl)cc(NS(C)(=O)=O)c2F)n1 [ENCORAFENIB] | > 30 µM (inactive)

Target: MAP/microtubule affinity-regulating kinase 3 (Homo sapiens, UniProt P27448)
Sequence (P27448 whole entry): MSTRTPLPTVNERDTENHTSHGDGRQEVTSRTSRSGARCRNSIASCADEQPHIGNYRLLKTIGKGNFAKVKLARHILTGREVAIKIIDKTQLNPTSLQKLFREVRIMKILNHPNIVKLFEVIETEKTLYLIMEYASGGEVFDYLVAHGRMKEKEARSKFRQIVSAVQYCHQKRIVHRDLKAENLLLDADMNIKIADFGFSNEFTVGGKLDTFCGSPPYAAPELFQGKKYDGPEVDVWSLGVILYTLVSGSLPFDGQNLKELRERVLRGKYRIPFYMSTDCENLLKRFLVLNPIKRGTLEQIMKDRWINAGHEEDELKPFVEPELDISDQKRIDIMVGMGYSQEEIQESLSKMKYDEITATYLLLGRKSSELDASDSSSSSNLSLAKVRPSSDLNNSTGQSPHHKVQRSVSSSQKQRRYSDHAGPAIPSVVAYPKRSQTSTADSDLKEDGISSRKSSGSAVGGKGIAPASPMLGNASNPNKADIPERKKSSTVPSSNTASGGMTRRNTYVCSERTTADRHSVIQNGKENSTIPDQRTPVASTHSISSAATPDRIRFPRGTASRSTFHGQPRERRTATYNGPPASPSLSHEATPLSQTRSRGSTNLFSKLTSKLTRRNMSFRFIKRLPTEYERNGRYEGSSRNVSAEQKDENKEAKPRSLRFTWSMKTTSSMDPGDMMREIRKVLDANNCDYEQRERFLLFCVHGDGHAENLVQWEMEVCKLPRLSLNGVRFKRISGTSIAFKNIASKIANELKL

SMILES | Kd
COc1ccc(-c2ccc3c(N4CCOC[C@@H]4C)nc(N4CCOC[C@@H]4C)nc3n2)cc1CO [AZD-8055] | > 30 µM (inactive)
C[C@@H](Nc1cc(F)cc(F)c1)c1cc(C(=O)N(C)C)cc2c(=O)cc(N3CCOCC3)oc12 [AZD-8186] | > 30 µM (inactive)
Cc1ccc(NC(=O)c2ccc(CN3CC[C@H](N(C)C)C3)c(C(F)(F)F)c2)cc1Nc1nccc(-c2cncnc2)n1 [BAFETINIB] | > 30 µM (inactive)
Cc1cc2c(F)c(Oc3ncnn4cc(OC[C@@H](C)OC(=O)[C@H](C)N)c(C)c34)ccc2[nH]1 [BRIVANIB ALANINATE] | > 30 µM (inactive)
O=C(c1ccc(F)c(F)c1Nc1ccc(I)cc1F)N1CC(O)([C@@H]2CCCCN2)C1 [COBIMETINIB] | > 30 µM (inactive)
COC(=O)N[C@@H](C)CNc1nccc(-c2cn(C(C)C)nc2-c2cc(Cl)cc(NS(C)(=O)=O)c2F)n1 [ENCORAFENIB] | > 30 µM (inactive)

Target: T3, Dual specificity mitogen-activated protein kinase kinase 3 (Homo sapiens, UniProt P46734)
T3 sequence (P46734 whole entry): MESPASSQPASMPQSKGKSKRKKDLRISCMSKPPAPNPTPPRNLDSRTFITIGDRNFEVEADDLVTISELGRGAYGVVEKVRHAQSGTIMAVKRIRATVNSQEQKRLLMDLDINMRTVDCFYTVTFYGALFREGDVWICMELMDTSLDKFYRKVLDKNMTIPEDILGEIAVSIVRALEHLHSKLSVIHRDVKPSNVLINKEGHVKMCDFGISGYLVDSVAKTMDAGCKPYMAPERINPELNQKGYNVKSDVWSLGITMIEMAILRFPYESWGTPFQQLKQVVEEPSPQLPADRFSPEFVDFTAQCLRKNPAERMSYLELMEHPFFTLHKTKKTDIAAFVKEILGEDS

SMILES | Kd
COc1ccc(-c2ccc3c(N4CCOC[C@@H]4C)nc(N4CCOC[C@@H]4C)nc3n2)cc1CO [AZD-8055] | > 30 µM (inactive)
C[C@@H](Nc1cc(F)cc(F)c1)c1cc(C(=O)N(C)C)cc2c(=O)cc(N3CCOCC3)oc12 [AZD-8186] | > 30 µM (inactive)
Cc1ccc(NC(=O)c2ccc(CN3CC[C@H](N(C)C)C3)c(C(F)(F)F)c2)cc1Nc1nccc(-c2cncnc2)n1 [BAFETINIB] | > 30 µM (inactive)
Cc1cc2c(F)c(Oc3ncnn4cc(OC[C@@H](C)OC(=O)[C@H](C)N)c(C)c34)ccc2[nH]1 [BRIVANIB ALANINATE] | > 30 µM (inactive)
O=C(c1ccc(F)c(F)c1Nc1ccc(I)cc1F)N1CC(O)([C@@H]2CCCCN2)C1 [COBIMETINIB] | > 30 µM (inactive)
COC(=O)N[C@@H](C)CNc1nccc(-c2cn(C(C)C)nc2-c2cc(Cl)cc(NS(C)(=O)=O)c2F)n1 [ENCORAFENIB] | > 30 µM (inactive)

Target: T4, Ras-related protein Rab-10 (Homo sapiens, UniProt P61026)
T4 sequence (P61026 whole entry): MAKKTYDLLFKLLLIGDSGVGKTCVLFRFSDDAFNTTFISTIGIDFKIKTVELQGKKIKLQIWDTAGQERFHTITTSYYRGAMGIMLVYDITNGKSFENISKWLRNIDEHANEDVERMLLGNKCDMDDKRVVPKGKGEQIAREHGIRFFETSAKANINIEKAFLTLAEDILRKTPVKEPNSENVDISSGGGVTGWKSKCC

SMILES | Kd
COc1ccc(-c2ccc3c(N4CCOC[C@@H]4C)nc(N4CCOC[C@@H]4C)nc3n2)cc1CO [AZD-8055] | > 30 µM (inactive)
C[C@@H](Nc1cc(F)cc(F)c1)c1cc(C(=O)N(C)C)cc2c(=O)cc(N3CCOCC3)oc12 [AZD-8186] | > 30 µM (inactive)
Cc1ccc(NC(=O)c2ccc(CN3CC[C@H](N(C)C)C3)c(C(F)(F)F)c2)cc1Nc1nccc(-c2cncnc2)n1 [BAFETINIB] | > 30 µM (inactive)
Cc1cc2c(F)c(Oc3ncnn4cc(OC[C@@H](C)OC(=O)[C@H](C)N)c(C)c34)ccc2[nH]1 [BRIVANIB ALANINATE] | > 30 µM (inactive)
O=C(c1ccc(F)c(F)c1Nc1ccc(I)cc1F)N1CC(O)([C@@H]2CCCCN2)C1 [COBIMETINIB] | > 30 µM (inactive)
COC(=O)N[C@@H](C)CNc1nccc(-c2cn(C(C)C)nc2-c2cc(Cl)cc(NS(C)(=O)=O)c2F)n1 [ENCORAFENIB] | > 30 µM (inactive)

Target: T5, MAP/microtubule affinity-regulating kinase 4 (Homo sapiens, UniProt Q96L34)
T5 sequence (Q96L34 whole entry): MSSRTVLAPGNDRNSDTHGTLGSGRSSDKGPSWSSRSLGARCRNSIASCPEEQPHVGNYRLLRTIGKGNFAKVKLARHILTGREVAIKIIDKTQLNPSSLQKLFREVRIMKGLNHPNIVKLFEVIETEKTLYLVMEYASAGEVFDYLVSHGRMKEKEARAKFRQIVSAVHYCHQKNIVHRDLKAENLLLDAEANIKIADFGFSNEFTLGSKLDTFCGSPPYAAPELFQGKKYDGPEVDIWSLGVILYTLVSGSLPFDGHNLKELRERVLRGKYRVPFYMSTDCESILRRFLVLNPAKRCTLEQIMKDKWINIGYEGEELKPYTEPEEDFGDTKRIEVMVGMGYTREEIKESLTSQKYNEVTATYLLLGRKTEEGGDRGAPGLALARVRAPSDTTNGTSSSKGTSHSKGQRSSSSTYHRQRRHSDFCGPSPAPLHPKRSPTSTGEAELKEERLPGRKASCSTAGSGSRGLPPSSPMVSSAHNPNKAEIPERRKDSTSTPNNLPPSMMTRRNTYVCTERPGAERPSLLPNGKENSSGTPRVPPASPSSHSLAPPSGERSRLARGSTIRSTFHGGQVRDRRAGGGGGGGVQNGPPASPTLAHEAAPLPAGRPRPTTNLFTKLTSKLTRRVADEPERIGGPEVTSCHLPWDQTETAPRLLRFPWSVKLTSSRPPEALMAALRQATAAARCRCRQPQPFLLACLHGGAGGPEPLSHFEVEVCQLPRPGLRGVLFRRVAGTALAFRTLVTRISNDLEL

SMILES | Kd
COc1ccc(-c2ccc3c(N4CCOC[C@@H]4C)nc(N4CCOC[C@@H]4C)nc3n2)cc1CO [AZD-8055] | > 30 µM (inactive)
C[C@@H](Nc1cc(F)cc(F)c1)c1cc(C(=O)N(C)C)cc2c(=O)cc(N3CCOCC3)oc12 [AZD-8186] | > 30 µM (inactive)
Cc1ccc(NC(=O)c2ccc(CN3CC[C@H](N(C)C)C3)c(C(F)(F)F)c2)cc1Nc1nccc(-c2cncnc2)n1 [BAFETINIB] | > 30 µM (inactive)
Cc1cc2c(F)c(Oc3ncnn4cc(OC[C@@H](C)OC(=O)[C@H](C)N)c(C)c34)ccc2[nH]1 [BRIVANIB ALANINATE] | > 30 µM (inactive)
O=C(c1ccc(F)c(F)c1Nc1ccc(I)cc1F)N1CC(O)([C@@H]2CCCCN2)C1 [COBIMETINIB] | > 30 µM (inactive)
COC(=O)N[C@@H](C)CNc1nccc(-c2cn(C(C)C)nc2-c2cc(Cl)cc(NS(C)(=O)=O)c2F)n1 [ENCORAFENIB] | > 30 µM (inactive)
